In patent US10369134B2, “Nonracemic mixtures and uses thereof” (Sunovion Pharmaceuticals Inc., priority 2017, dated 2019):
In brackets after ≈: the same amount, converted by molar mass. Read-outs that look alike come from different tables or passages of the source. Blank lines part the entries; values can stand above or below the compound they belong to.

Tests used:
[1] = cited from earlier work
[2] = Solubility of crystal forms; format: physicochemical; conditions: thermodynamic from solid
Text: In various embodiments, the compositions of the present inventions use new crystalline forms of enantiomeric amisulpride, Form A and Form A′. […] It is to be understood that upon dissolution of the compound it is no longer of a crystalline form, thus one of ordinary skill in the art will understand that the specific rotation in Table 7 refers to that of the non-crystalline compound.

[3] = Dynamic vapor sorption (DVS) water sorption isotherm; format: physicochemical; conditions: for maximum mass change in water sorption isotherms: 25° C., scanned over 0 to 95% relative humidity; for Change Mass: FIG. 8D
Text: In various embodiments, the hygroscopicity of crystal forms of racemic amisulpride, enantiomeric amisulpride, and enantiomeric amisulpride solvates are characterized by dynamic vapor sorption (DVS). DVS is a gravimetric technique that measures how much of a solvent is absorbed by a sample by varying the vapor concentration surrounding the sample (e.g., relative humidity) and measuring the change in mass. In the present application, DVS is used to generate water sorption isotherms, which represent the equilibrium amount of vapor sorbed as a function of steady state relative vapor pressure at a constant temperature.

[4] = Plasma (S)-amisulpride levels during the PET study; format: in vivo; conditions: human, single oral solution 25-200 mg
Protocol: Plasma samples were collected throughout the course of the PET scan session and were analyzed for (S)-amisulpride levels.

rat = experiment: Forced Swim test; format: in vivo
Protocol: The Forced Swim test (FST) is an indicator of the antidepressant-like activity of a test compound. The rat will swim before “giving up” and becoming immobile. A compound with antidepressant-like activity will decrease the time the rat is immobile.
The animals (n=90) were divided into five groups. […] In the training session, each animal was gently placed into the plastic cylinder containing 5.8 L of water set at 25±1° C. Fifteen minutes after the beginning of the training session, the animal was removed from the water. The dosing solutions were administered 15 minutes after finishing of the training.
The swim test was performed for 5 minutes in the same manner as the training session. In the swim test, the behavior of each animal was horizontally recorded using a video camera. After the swim test, animals were immediately sacrificed by inhalation of carbon dioxide.
The swim movies were handled in a blind manner to ensure that the person who measured the immobility time had no information on the treatment. An animal was judged to be immobile whenever it remained floating in the water without moving its body or forepaws except for the slight movement to maintain its posture. The total time for which the animal remained immobile was defined as the immobility time. An observer blinded to the doses measured the immobility times. The immobility time of each animal was measured to one decimal place and rounded to a whole number. Immobility time was expressed in units of seconds. In each series the means of immobility time were calculated and rounded to a whole number using. The mean and standard error (SE) for each group were calculated using the data obtained from three experimental series and rounded to a whole number. All results are represented as the mean±SE.
The data of imipramine were analyzed using t-test with a two-sided significance level of 5% (p<0.05).

[5] = 0.05 M acetate buffer, aqueous buffer, solution pH 4.5, read-out: Solubility, 0.05 M Acetate Buffer
[6] = acetone/MtBE 1:4, organic solvent or mixture, read-out: Solubility, Acetone/MtBE 1:4
[7] = acetone/MtBE 1:9, organic solvent or mixture, read-out: Solubility, Acetone/MtBE 1:9
[8] = ethyl acetate, organic solvent or mixture, read-out: Solubility, Ethyl Acetate
[9] = simulated gastric fluid (no enzyme), pH 1.1, simulated gastric fluid, pH adjusted to 1.1 (Form A), 1.2 (Form A′), read-out: Solubility, Simulated Gastric Fluid (no enzyme)
[10] = simulated intestinal fluid (no enzyme), pH 6.7, fassgf or other biorelevant, pH adjusted to 6.7 (Form A), 6.9 (Form A′), read-out: Solubility, Simulated Intestinal Fluid (no enzyme)
[11] = water, pH 10.2, water, read-out: Solubility, Water

Structure (SMILES): CCN1CCCC1CNC(=O)c1cc(S(=O)(=O)CC)c(N)cc1OC (racemic) [racemic amisulpride, 4-amino-N-[(1-ethylpyrrolidin-2-yl)methyl]-5-ethylsulfonyl-2-methoxy-benzamide]
terminal plasma half-life ([1]; biphasic elimination, Coukell et al. 1996): approximately 12 hours

Structure (SMILES): CCN1CCC[C@@H]1CNC(=O)c1cc(S(=O)(=O)CC)c(N)cc1OC [(R)-amisulpride Form A, R-4-Amino-N-[(1-ethyl-2-pyrrolidinyl)methyl]-5-(ethylsulfonyl)-2-methoxybenzamide]
solubility [2, 5]: > 100000 µg/mL | solubility [2, 6]: 8000 µg/mL (≈ 21.7 mM) | solubility [2, 7]: 2000 µg/mL (≈ 5.41 mM) | solubility [2, 8]: 3900 µg/mL (≈ 10.6 mM) | solubility [2, 9]: > 100000 µg/mL | solubility [2, 10]: > 100000 µg/mL | solubility [2, 11]: 2000 µg/mL (≈ 5.41 mM)

Structure (SMILES): CN(C)CCCN1c2ccccc2CCc2ccccc21 [Imipramine, imipramine]
immobility time (rat; 10 mg/kg i.p. at 24, 5 and 1 h before swim test, mean ± SE, vehicle 168±12): 105 ± 15 s | shortening of immobility time (rat; 10 mg/kg i.p., in all series, vs vehicle): more than 20%

Structure (SMILES): OCCOCCN1CCN(C2=Nc3ccccc3Sc3ccccc32)CC1 [quetiapine]
elimination half-life ([1]; literature (Delaney and Nemeroff 2001)): about 7 hours

Results, then the compound that gave them:

maximum mass change in water sorption isotherms [3]: 52±9%
Structure (SMILES): CCN1CCCC1CNC(=O)c1cc(S(=O)(=O)CC)c(N)cc1OC.O=C(O)C(O)C(O)C(=O)O [(S)-amisulpride D-tartrate, reference compound]

maximum mass change in water sorption isotherms [3]: 0.35% | Change Mass ([3]; 19.077 mg, relative humidity 0 %, rising steps): 0.00 wt % | Change Mass ([3]; relative humidity 1 %, falling steps): −0.01 wt % | Change Mass ([3]; relative humidity 10 %, falling steps): 0.01 wt % | Change Mass ([3]; relative humidity 10 %, rising steps): 0.03 wt % | Change Mass ([3]; relative humidity 20 %, falling steps): 0.03 wt % | Change Mass ([3]; relative humidity 20 %, rising steps): 0.05 wt % | Change Mass ([3]; relative humidity 30 %, falling steps): 0.05 wt % | Change Mass ([3]; relative humidity 30 %, rising steps): 0.07 wt % | Change Mass ([3]; relative humidity 40 %, falling steps): 0.07 wt % | Change Mass ([3]; relative humidity 40 %, rising steps): 0.09 wt % | Change Mass ([3]; relative humidity 50 %, falling steps): 0.08 wt % | Change Mass ([3]; relative humidity 50 %, rising steps): 0.11 wt % | Change Mass ([3]; relative humidity 60 %, falling steps): 0.11 wt % | Change Mass ([3]; relative humidity 60 %, rising steps): 0.13 wt % | Change Mass ([3]; relative humidity 70 %, falling steps): 0.14 wt % | Change Mass ([3]; relative humidity 70 %, rising steps): 0.16 wt % | Change Mass ([3]; relative humidity 75 %, falling steps): 0.16 wt % | Change Mass ([3]; relative humidity 75 %, rising steps): 0.18 wt % | Change Mass ([3]; relative humidity 80 %, falling steps): 0.17 wt % | Change Mass ([3]; relative humidity 80 %, rising steps): 0.19 wt % | Change Mass ([3]; relative humidity 90 %, falling steps): 0.28 wt % | Change Mass ([3]; relative humidity 90 %, rising steps): 0.25 wt % | Change Mass ([3]; relative humidity 95 %, first step at 95 %): 0.34 wt % | Change Mass ([3]; relative humidity 95 %, second step at 95 %): 0.35 wt % | solubility [2, 5]: > 100000 µg/mL | solubility [2, 6]: 8000 µg/mL (≈ 21.7 mM) | solubility [2, 7]: 2000 µg/mL (≈ 5.41 mM) | solubility [2, 8]: 3900 µg/mL (≈ 10.6 mM) | solubility [2, 9]: > 100000 µg/mL | solubility [2, 10]: > 100000 µg/mL | solubility [2, 11]: 2000 µg/mL (≈ 5.41 mM)
Structure (SMILES): CCN1CCC[C@H]1CNC(=O)c1cc(S(=O)(=O)CC)c(N)cc1OC [(S)-amisulpride Form A′, S-4-Amino-N-[(1-ethyl-2-pyrrolidinyl)methyl]-5-(ethylsulfonyl)-2-methoxybenzamide]

time frame in which plasma concentrations peaked [4]: approximately 3 hour
Structure (SMILES): CCN1CCC[C@H]1CNC(=O)c1cc(S(=O)(=O)CC)c(N)cc1OC [(S)-amisulpride, S-4-Amino-N-[(1-ethyl-2-pyrrolidinyl)methyl]-5-(ethylsulfonyl)-2-methoxybenzamide]
